According to patent US20250025451A1, “TREATMENT OF CANCER WITH KDM4 INHIBITORS” (Celgene Corporation, priority 2021, published 2025):

Tested on: 301 cancer cell lines from different tumor types
Test: 2D cell viability inhibition assay, broad cancer cell line panel (OncoPanel; CellTiter-Glo)
Assay type: cell-based
Parameters: key to Emax: % of DMSO control (minimum response over dose range); AUC: scale not given here
Conditions: for AUC / Emax: 168 hours; for Emax: in % (unit assumed)
Procedure: In a larger screening study, compound 1 was evaluated across a broad cancer cell line panel (OncoPanel; HD Biosciences) composed of 301 cancer cell lines from different tumor types.
2D cell viability inhibition assays were performed in multiwell plates seeded with cells from the panel. After seeding, the plates were cultured overnight in a humidified incubator at 37° C. to promote adherence. Assays were initiated in individual wells by adding either DMSO as a vehicle control, growth media as a blank, or serially diluted compound 1 (10 μM to 0.0005 μM with 1:3 serial dilution). Cultures were incubated for 168 hours after which the number of viable cells in each test well was assessed using the CellTiter-Glo® Luminescent Cell Viability Assay. Luminescence readouts were performed using an EnVision® Multilabel Reader and the compound 1 readouts were normalized to the DMSO control readouts, expressed as a percent of the control. Outliers were flagged out by visual inspection. Percent of control was plotted against the corresponding compound 1 concentration and the absolute IC50 value was determined using four-parameter logistic non-linear regression as the concentration where inhibition was 50% of the control. […] Emax was recorded as the minimum in y with the compound dose range. […] The sensitive/moderate/resistant calls for each cell line was determined by visually inspecting the resulting clustering dendrogram. All the analyses were done in R Core Team.

[1] = Homo sapiens, NCI-H1650, 168 h, NCIH1650 (lung, bronchioloalveolar adenocarcinoma)
[2] = Homo sapiens, NCI-H1755, 168 h, NCIH1755 (lung, adenocarcinoma)
[3] = Homo sapiens, NCI-H1838, 168 h, NCIH1838 (lung, non-small cell carcinoma)
[4] = Homo sapiens, NCI-H2009, 168 h, NCIH2009 (lung, adenocarcinoma)
[5] = Homo sapiens, ONS-76, 168 h, ONS76 (central nervous system, NS)
[6] = Homo sapiens, OVCAR-3, 168 h, NIHOVCAR3 (ovary, NS)
[7] = Homo sapiens, RPMI-7951, 168 h, RPMI7951 (skin, NS)
[8] = Homo sapiens, SAOS-2, 168 h, SAOS2 (bone, NS)
[9] = Homo sapiens, SCC-9, 168 h, SCC9 (upper aerodigestive tract, squamous cell carcinoma)
[10] = Homo sapiens, SCC-15, 168 h, SCC15 (upper aerodigestive tract, squamous cell carcinoma)
[11] = Homo sapiens, SCC-25, 168 h, SCC25 (upper aerodigestive tract, squamous cell carcinoma)
[12] = Homo sapiens, SK-HEP1, 168 h, SKHEP1 (liver, adenocarcinoma)
[13] = Homo sapiens, SK-MEL-24, 168 h, SKMEL24 (skin, NS)
[14] = Homo sapiens, SK-N-SH, 168 h, SKNSH (autonomic ganglia, NS)
[15] = Homo sapiens, SK-OV-3, 168 h, SKOV3 (ovary, adenocarcinoma)
[16] = Homo sapiens, SNU-C1, 168 h, SNUC1 (large intestine, adenocarcinoma)
[17] = Homo sapiens, SW837, 168 h, SW837 (large intestine, adenocarcinoma)
[18] = Homo sapiens, SW1417, 168 h, SW1417 (large intestine, adenocarcinoma)
[19] = Homo sapiens, TE-15, 168 h, TE15 (oesophagus, squamous cell carcinoma)
[20] = Homo sapiens, UACC-812, 168 h, UACC812 (breast, ductal carcinoma)
[21] = Homo sapiens, VCaP, 168 h, VCAP (prostate, adenocarcinoma)
[22] = KASUMI1 (haematopoietic and lymphoid tissue, acute myeloid leukaemia)
[23] = KG1 (haematopoietic and lymphoid tissue, acute myeloid leukaemia)
[24] = KURAMOCHI (ovary, undifferentiated carcinoma)
[25] = KYSE70 (oesophagus, squamous cell carcinoma)
[26] = LU99 (lung, large cell carcinoma)
[27] = MDAMB157 (breast, ductal carcinoma)
[28] = MDAMB 175 VII (breast, ductal carcinoma)
[29] = NCI-H1435, 168 h, NCIH1435 (lung, non-small cell carcinoma)
[30] = NCIH596 (lung, mixed adenosquamous carcinoma)
[31] = NCIH1395 (lung, adenocarcinoma)
[32] = NCIH1435 (lung, non-small cell carcinoma)
[33] = NCIH1563 (lung, adenocarcinoma)
[34] = NCIH1573 (lung, adenocarcinoma)
[35] = NCIH1650 (lung, bronchioloalveolar adenocarcinoma)
[36] = NCIH1755 (lung, adenocarcinoma)
[37] = NCIH1838 (lung, non-small cell carcinoma)
[38] = NCIH2009 (lung, adenocarcinoma)
[39] = NMCG1 (central nervous system, NS)
[40] = ONS76 (central nervous system, NS)
[41] = SCC9 (upper aerodigestive tract, squamous cell carcinoma)
[42] = SCC15 (upper aerodigestive tract, squamous cell carcinoma)
[43] = SCC25 (upper aerodigestive tract, squamous cell carcinoma)
[44] = SNUC1 (large intestine, adenocarcinoma)
[45] = SW579 (thyroid, anaplastic carcinoma)
[46] = SW579, 168 h, SW579 (thyroid, anaplastic carcinoma)
[47] = SW837 (large intestine, adenocarcinoma)
[48] = SW1271 (lung, small cell carcinoma)
[49] = SW1271, 168 h, SW1271 (lung, small cell carcinoma)
[50] = SW1417 (large intestine, adenocarcinoma)
[51] = T24 (urinary tract, transitional cell carcinoma)
[52] = TE1 (oesophagus, squamous cell carcinoma)
[53] = TE8 (oesophagus, squamous cell carcinoma)
[54] = TE15 (oesophagus, squamous cell carcinoma)
[55] = UACC812 (breast, ductal carcinoma)
[56] = VCAP (prostate, adenocarcinoma)

Q: What does the source list for `CC(C)c1ccc(N(C)c2ccc3c(c2)OCC[C@H]3CNc2cnccc2C(=O)O)cc1` [Compound 1, 3-({[(4R)-7-{methyl[4-(propan-2-yl)phenyl]amino}-3,4-dihydro-2H-1-benzopyran-4-yl]methyl}amino)pyridine-4-carboxylic acid]?
A: EC50 [1]: ≥ 10 µM; IC50 [1]: ≥ 10 µM; EC50 [2]: ≥ 10 µM; IC50 [2]: ≥ 10 µM; EC50 [3]: ≥ 10 µM; IC50 [3]: ≥ 10 µM; EC50 [4]: 8.02 µM; IC50 [4]: ≥ 10 µM; EC50 [5]: ≥ 10 µM; IC50 [5]: ≥ 10 µM; EC50 [6]: ≥ 10 µM; IC50 [6]: ≥ 10 µM; EC50 [7]: ≥ 10 µM; IC50 [7]: ≥ 10 µM; EC50 [8]: ≥ 10 µM; IC50 [8]: ≥ 10 µM; EC50 [9]: ≥ 10 µM; IC50 [9]: ≥ 10 µM; EC50 [10]: ≥ 10 µM; IC50 [10]: ≥ 10 µM; EC50 [11]: ≥ 10 µM; IC50 [11]: ≥ 10 µM; EC50 [12]: ≥ 10 µM; IC50 [12]: ≥ 10 µM; EC50 [13]: ≥ 10 µM; IC50 [13]: ≥ 10 µM; EC50 [14]: ≥ 10 µM; IC50 [14]: ≥ 10 µM; EC50 [15]: ≥ 10 µM; IC50 [15]: ≥ 10 µM; EC50 [16]: ≥ 10 µM; IC50 [16]: ≥ 10 µM; EC50 [17]: ≥ 10 µM; IC50 [17]: ≥ 10 µM; EC50 [18]: ≥ 10 µM; IC50 [18]: ≥ 10 µM; EC50 [19]: ≥ 10 µM; IC50 [19]: ≥ 10 µM; EC50 [20]: 6.95 µM; IC50 [20]: ≥ 10 µM; EC50 [21]: ≥ 10 µM; IC50 [21]: ≥ 10 µM; AUC [22]: 0.8823; Emax [22]: 81.08; AUC [23]: 0.9592; Emax [23]: 80.44; AUC [24]: 0.8742; Emax [24]: 73.85; AUC [25]: 0.6942; Emax [25]: 50.19; AUC [26]: 0.79; Emax [26]: 64.66; AUC (MALME3M (skin, NS)): 0.9867; Emax (MALME3M (skin, NS)): 94.08; AUC [27]: 0.8362; Emax [27]: 64.71; AUC [28]: 0.7385; Emax [28]: 60.66; AUC (MDAMB231 (breast, NS)): 0.7262; Emax (MDAMB231 (breast, NS)): 55.94; AUC (MDAMB361 (breast, NS)): 1.117; Emax (MDAMB361 (breast, NS)): 94.55; AUC (MDAMB415 (breast, NS)): 0.9413; Emax (MDAMB415 (breast, NS)): 83.39; AUC (MDAMB436 (breast, NS)): 0.8438; Emax (MDAMB436 (breast, NS)): 70.42; AUC (MDAMB468 (breast, NS)): 0.6972; Emax (MDAMB468 (breast, NS)): 50.87; AUC (MEWO (skin, NS)): 0.7237; Emax (MEWO (skin, NS)): 56.56; EC50 [29]: ≥ 10 µM; IC50 [29]: ≥ 10 µM; AUC (NCIH441 (lung, adenocarcinoma)): 0.7804; Emax (NCIH441 (lung, adenocarcinoma)): 67.49; AUC [30]: 0.8151; Emax [30]: 61.34; AUC [31]: 0.8542; Emax [31]: 70.68; AUC [32]: 0.7612; Emax [32]: 60.04; AUC [33]: 0.9652; Emax [33]: 93.507; AUC [34]: 0.7482; Emax [34]: 53.57; AUC [35]: 0.8746; Emax [35]: 68.07; AUC [36]: 1.29; Emax [36]: 123.3293; AUC [37]: 0.7858; Emax [37]: 60.0585; AUC [38]: 0.7914; Emax [38]: 55.69; AUC (NIHOVCAR3 (ovary, NS)): 0.7771; Emax (NIHOVCAR3 (ovary, NS)): 59.47; AUC [39]: 0.7013; Emax [39]: 47.06; AUC [40]: 0.7336; Emax [40]: 54.63; AUC (RPMI7951 (skin, NS)): 0.8067; Emax (RPMI7951 (skin, NS)): 66.31; AUC (SAOS2 (bone, NS)): 1.081; Emax (SAOS2 (bone, NS)): 92.52; AUC [41]: 0.9424; Emax [41]: 69.25; AUC [42]: 0.9489; Emax [42]: 90.39; AUC [43]: 0.7789; Emax [43]: 62.3079; AUC (SKHEP1 (liver, adenocarcinoma)): 0.7091; Emax (SKHEP1 (liver, adenocarcinoma)): 44.3029; AUC (SKMEL24 (skin, NS)): 0.7882; Emax (SKMEL24 (skin, NS)): 58.12; AUC (SKMEL31 (skin, NS)): 0.7393; Emax (SKMEL31 (skin, NS)): 59.49; AUC (SKNSH (autonomic ganglia, NS)): 0.7295; Emax (SKNSH (autonomic ganglia, NS)): 53.89; AUC (SKOV3 (ovary, adenocarcinoma)): 0.9901; Emax (SKOV3 (ovary, adenocarcinoma)): 96.03; AUC [44]: 0.7478; Emax [44]: 55.45; AUC [45]: 0.9203; Emax [45]: 79.98; EC50 [46]: ≥ 10 µM; IC50 [46]: ≥ 10 µM; AUC [47]: 0.7109; Emax [47]: 46.73; AUC [48]: 0.8179; Emax [48]: 65.38; EC50 [49]: ≥ 10 µM; IC50 [49]: ≥ 10 µM; AUC [50]: 0.9634; Emax [50]: 91.96; AUC [51]: 0.9289; Emax [51]: 75.74; AUC [52]: 0.938; Emax [52]: 84.54; AUC [53]: 0.816; Emax [53]: 72.1307; AUC [54]: 1.084; Emax [54]: 89.04; AUC [55]: 0.8418; Emax [55]: 62.67; AUC [56]: 0.7822; Emax [56]: 62.6
